Source: publication PMC6825211 (Nature Communications, 2019)
“And” between values parts separate entries of the source, which are not always exact repeats. Identical values can stand only once.

Experiments:
EPH-A2 = EPH-A2 (Homo sapiens, UniProt P29317); assay: Nanosyn kinase profiling, mobility shift assay; details: read-out: % inhibition by neratinib
[1] = test system: obese diabetic Lepr db/db mice; assay: db/db model: β-cell proliferation (Ki67); type: in vivo, mouse; details: dbdb mice
MLD–STZ C57BL/6J mice [2] = assay: MLD–STZ model: β-cell apoptosis (TUNEL); type: in vivo, mouse
Method: (§1) C57Bl/6J mice were injected with 40 mg/kg streptozotocin or citrate buffer for 5 consecutive days. […] In d, basal glucose values were normalized to 100%. e Insulin secretion measured from retro-orbital blood draw during an ipGTT measured before (0 min) and 15 min after glucose injection; data are expressed as the ratio of secreted insulin at 15 min/0 min (stimulatory index). f The ratio of secreted insulin and glucose is calculated at fed state. g–i Mice were killed at day 35. g β-cell mass (given as percentage of the whole pancreatic section from ten sections spanning the width of the pancreas) and quantitative analyses from triple staining for h TUNEL or i Ki67, insulin, and DAPI expressed as percentage of TUNEL- or Ki67-positive β-cells ±SEM. An average number of 2331 (h), or 26369 (i) β-cells were counted. n = 9 mice/group for (a); n = 4–12 for (b); n = 5–15 for (c) and (d); n = 12–19 for (e); n = 8–14 for (f); n = 4–9 for (g); n = 4–11 for (h); and n = 6–11 mice/groupfor (i); all from three independent experiments).
(§2) Mouse pancreases were dissected and fixed in 4% formaldehyde at 4 °C for 12 h before embedding in paraffin[62]. Two-four-micrometer sections were deparaffinized, rehydrated, and incubated overnight at 4 °C with anti-PDX-1 (Abcam; #47267), anti-Glut2 (Chemicon; #07-1402), anti-Ki67 (Dako; #M7249), anti-phospho-Histone H3 (Ser10; Merck #06-570), and anti-NKX6.1 (DSHB, University of Iowa #F55A12[66]) in combination with TSA (Invitrogen #T30955), or for 2 h at room temperature with anti-insulin (Dako; A0546) antibodies (all at a dilution of 1:100, except anti-PDX-1, which was diluted 1:400) followed by fluorescein isothiocyanate (FITC)- or Cy3-conjugated secondary antibodies (Jackson ImmunoResearch Laboratories, West Grove, PA). Slides were mounted with Vectashield with 4′6-diamidino-2-phenylindole (DAPI) (Vector Labs). β-cell apoptosis was analyzed by the terminal deoxynucleotidyl transferase-mediated dUTP nick-end labeling (TUNEL) technique according to the manufacturer’s instructions (In Situ Cell Death Detection Kit, TMR red; Roche) and double stained for insulin. Fluorescence was analyzed by using a Nikon MEA53200 (Nikon GmbH, Dusseldorf, Germany) microscope, and images were acquired by using NIS-Elements software (Nikon).

PRKD2 = PRKD2 (Homo sapiens, UniProt Q9BZL6); assay: Nanosyn kinase profiling, mobility shift assay; details: read-out: % inhibition by neratinib
MLD–STZ C57BL/6J mice [3] = assay: MLD–STZ model: intraperitoneal insulin tolerance test (ipITT); type: in vivo, mouse; design: ipITT glucose: unit not given here
Method: as §1
For intraperitoneal glucose tolerance tests, mice were fasted 12 h overnight and injected i.p. with glucose (40%; B.Braun, Melsungen, Germany) at a dose of 1 g/kg body weight. Blood samples were obtained at time points 0, 15, 30, 60, 90, and 120 min for glucose measurements by using a Glucometer. For i.p. insulin tolerance tests, mice were injected with 0.75 U/kg body weight recombinant human insulin (Novolin, Novo Nordisk) after 4–5-h fasting, and glucose concentration was determined with the Glucometer. Insulin secretion was measured before (0 min) and after (15 and 30 min) i.p. injection of glucose (2 g/kg) and measured by using ultrasensitive mouse Elisa kit (ALPCO Diagnostics, Salem, NH).

[4] = test system: obese diabetic Lepr db/db mice; assay: db/db model: nuclear PDX1-positive β-cells; type: in vivo, mouse; details: for PDX1 %/mouse: dbdb mice
From the text: Data are representative of six mice per group (n = 6 for (a–f)). g–j Mice were killed at day 31. g β-cell mass (given as percentage of the whole pancreatic section from ten sections spanning the width of the pancreas; n = 5 mice/group) and quantitative analyses from triple stainings for (h) TUNEL, (i) Ki67, (j) pHH3, and (k) nuclear PDX1 expression, insulin, and DAPI expressed as percentage of TUNEL-, Ki67-, pHH3-, or nuclear PDX1-positive β-cells ± SEM. An average number of 13667 (h), 5937 (i), 7108 (j), or 4330 (k) β-cells were counted from n = 3–5 (h, i, k) or n = 5–6 (j) mice/group.
as §2

INS-1E cells = assay: Caspase-3 activation Nucview assay, thapsigargin; type: cell-based, rat; details: 0.1 µM thapsigargin, NucView 488
Method: Apoptosis was induced after 24 h of compound treatment by 0.1 µM Thapsigargin (Torics, Bristol, United Kingdom) with caspase-3 substrate, Nucview 488 (Biotium, CA) in the treatment.
1 50 Supplementary Figure 3
100 Cell number Cell Number
evaluated through Nucview488 and Hoechst33342.
were analyzed through qRT-PCR.
detected on plate reader.

MST1–LATS2 signaling = assay: LATS-BS in vitro luciferase assay (MST1/LATS2 overexpression); details: for Firefly/Renilla x1000 (MEAN): L2/Mst1 overexpression + 10 μM compound
From the text: Therefore a LATS-BS construct has been generated with fusion of YAP fragment and 14-3-3 with N-terminal and C-terminal firefly luciferase fragments (N-luc and C-luc), respectively that assesses LATS kinase activity by measuring the interaction between pS127-YAP and 14-3-3[35] in a MST1–LATS2-phosphorylation-dependent manner (Fig. 4a).
As internal transfection control, pRL-Renilla luciferase control reporter vector (Promega) was co-transfected into each sample. […] Luciferase signal was calculated based on the ratio of luciferase activity of LATS-BS to control reporter vector.

MEK6 = MEK6 (Homo sapiens, UniProt P52564); assay: Nanosyn kinase profiling, mobility shift assay; details: read-out: % inhibition by neratinib
MEK6, sequence (P52564 whole entry): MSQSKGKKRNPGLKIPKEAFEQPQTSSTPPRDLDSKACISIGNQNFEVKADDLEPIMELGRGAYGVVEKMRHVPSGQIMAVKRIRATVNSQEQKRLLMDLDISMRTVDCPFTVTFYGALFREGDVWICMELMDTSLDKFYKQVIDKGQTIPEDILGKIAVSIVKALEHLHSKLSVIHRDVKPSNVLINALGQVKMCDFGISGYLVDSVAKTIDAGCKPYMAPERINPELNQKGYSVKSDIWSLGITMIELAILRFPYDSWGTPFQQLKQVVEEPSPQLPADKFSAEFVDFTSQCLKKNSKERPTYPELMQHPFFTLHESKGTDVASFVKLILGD

EPH-A2, sequence (P29317 24-976): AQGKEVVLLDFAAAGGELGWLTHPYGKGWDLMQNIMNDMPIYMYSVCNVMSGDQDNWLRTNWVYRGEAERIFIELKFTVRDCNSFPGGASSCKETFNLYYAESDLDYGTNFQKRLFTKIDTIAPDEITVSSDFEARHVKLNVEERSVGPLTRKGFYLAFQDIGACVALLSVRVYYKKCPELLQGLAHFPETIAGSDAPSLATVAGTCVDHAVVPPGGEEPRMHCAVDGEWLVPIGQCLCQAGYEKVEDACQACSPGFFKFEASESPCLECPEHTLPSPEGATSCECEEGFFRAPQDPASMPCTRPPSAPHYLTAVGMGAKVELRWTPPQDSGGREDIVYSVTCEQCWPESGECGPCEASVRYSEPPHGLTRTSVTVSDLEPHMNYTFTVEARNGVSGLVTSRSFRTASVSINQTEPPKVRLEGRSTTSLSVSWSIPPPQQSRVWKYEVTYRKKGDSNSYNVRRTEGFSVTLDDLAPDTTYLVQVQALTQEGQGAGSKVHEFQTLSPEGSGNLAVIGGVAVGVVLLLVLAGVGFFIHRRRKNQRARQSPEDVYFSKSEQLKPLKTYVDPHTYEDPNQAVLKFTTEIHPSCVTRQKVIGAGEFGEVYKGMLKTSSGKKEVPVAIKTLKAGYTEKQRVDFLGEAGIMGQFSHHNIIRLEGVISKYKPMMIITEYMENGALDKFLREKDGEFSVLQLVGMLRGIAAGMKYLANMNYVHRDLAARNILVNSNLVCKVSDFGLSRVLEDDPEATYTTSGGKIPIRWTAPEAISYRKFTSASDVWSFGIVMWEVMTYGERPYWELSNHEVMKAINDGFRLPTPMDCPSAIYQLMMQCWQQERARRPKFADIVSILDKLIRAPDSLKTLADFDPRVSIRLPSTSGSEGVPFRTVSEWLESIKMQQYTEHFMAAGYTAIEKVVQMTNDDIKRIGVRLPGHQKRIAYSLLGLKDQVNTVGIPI
PRKD2, sequence (Q9BZL6 whole entry): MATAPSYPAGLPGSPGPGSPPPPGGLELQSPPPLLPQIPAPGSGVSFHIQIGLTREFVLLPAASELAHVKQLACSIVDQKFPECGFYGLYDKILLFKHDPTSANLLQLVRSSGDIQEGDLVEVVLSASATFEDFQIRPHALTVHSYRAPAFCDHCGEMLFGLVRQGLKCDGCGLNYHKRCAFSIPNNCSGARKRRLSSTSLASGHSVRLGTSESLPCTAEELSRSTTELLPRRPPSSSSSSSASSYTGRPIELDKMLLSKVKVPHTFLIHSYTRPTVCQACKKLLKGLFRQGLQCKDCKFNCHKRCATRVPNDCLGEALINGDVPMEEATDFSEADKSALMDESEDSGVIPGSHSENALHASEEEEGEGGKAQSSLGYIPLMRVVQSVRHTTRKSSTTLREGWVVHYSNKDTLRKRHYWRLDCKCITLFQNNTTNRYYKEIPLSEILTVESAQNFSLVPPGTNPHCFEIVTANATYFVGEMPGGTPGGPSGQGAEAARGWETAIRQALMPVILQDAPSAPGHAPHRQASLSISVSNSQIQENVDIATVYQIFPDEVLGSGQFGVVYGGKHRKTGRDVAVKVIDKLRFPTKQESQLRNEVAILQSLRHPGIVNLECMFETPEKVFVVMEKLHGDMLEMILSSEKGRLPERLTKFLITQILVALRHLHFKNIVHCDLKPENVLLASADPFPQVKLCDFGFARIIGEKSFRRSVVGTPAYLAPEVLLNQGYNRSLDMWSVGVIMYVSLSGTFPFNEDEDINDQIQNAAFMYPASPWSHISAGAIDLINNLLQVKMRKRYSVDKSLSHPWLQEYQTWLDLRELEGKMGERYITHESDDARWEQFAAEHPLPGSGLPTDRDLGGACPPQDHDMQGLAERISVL

CCOc1cc2ncc(C#N)c(Nc3ccc(OCc4ccccn4)c(Cl)c3)c2cc1NC(=O)/C=C/CN(C)C [neratinib]
inhibition at 10 µM (EPH-A2): 51%
Ki67%/ mouse ([1]; Mean): 1.047%
Ki67%/ mouse ([1]; individual mice): 0.4896% and 1.365% and 0.6515% and 1.681%
TUNEL%/ mouse (MLD–STZ C57BL/6J mice [2]; NeraCtr group (no STZ), MEAN): 0.08333%
TUNEL%/ mouse (MLD–STZ C57BL/6J mice [2]; NeraCtr group (no STZ), individual mice): 0.3333% and 0%
TUNEL%/ mouse (MLD–STZ C57BL/6J mice [2]; NeraSTZ group, MEAN): 0.24%
TUNEL%/ mouse (MLD–STZ C57BL/6J mice [2]; NeraSTZ group, individual mice): 0% and 0.2857% and 1.2987% and 0.3546% and 0.7008%
β-cell apoptosis (MLD–STZ C57BL/6J mice [2]; STZ mice, day 35): reduced β-cell apoptosis
inhibition at 10 µM (PRKD2): 71%
insulin sensitivity (normalized glucose levels) (MLD–STZ C57BL/6J mice [3]; MLD–STZ study): neither neratinib nor STZ had a significant effect
ipITT glucose (MLD–STZ C57BL/6J mice [3]; NeraCtr, 0 min, Mean): 130.4
ipITT glucose normalized to 100, MEAN (MLD–STZ C57BL/6J mice [3]; NeraCtr, 0 min after ins): 100
ipITT glucose (MLD–STZ C57BL/6J mice [3]; NeraCtr, 0 min after ins, individual mice): 135 and 120 and 117 and 132 and 148
ipITT glucose (MLD–STZ C57BL/6J mice [3]; NeraCtr, 15 min, Mean): 84.6
ipITT glucose normalized to 100, MEAN (MLD–STZ C57BL/6J mice [3]; NeraCtr, 15 min after ins): 64.88
ipITT glucose (MLD–STZ C57BL/6J mice [3]; NeraCtr, 15 min after ins, individual mice): 94 and 83 and 116 and 55 and 75
ipITT glucose (MLD–STZ C57BL/6J mice [3]; NeraCtr, 30 min, Mean): 84.4
ipITT glucose normalized to 100, MEAN (MLD–STZ C57BL/6J mice [3]; NeraCtr, 30 min after ins): 64.72
ipITT glucose (MLD–STZ C57BL/6J mice [3]; NeraCtr, 30 min after ins, individual mice): 80 and 67 and 123 and 71 and 81
ipITT glucose (MLD–STZ C57BL/6J mice [3]; NeraCtr, 60 min, Mean): 82.8
ipITT glucose normalized to 100, MEAN (MLD–STZ C57BL/6J mice [3]; NeraCtr, 60 min after ins): 63.5
ipITT glucose (MLD–STZ C57BL/6J mice [3]; NeraCtr, 60 min after ins, individual mice): 84 and 80 and 121 and 48 and 81
ipITT glucose (MLD–STZ C57BL/6J mice [3]; NeraCtr, 90 min, Mean): 89
ipITT glucose normalized to 100, MEAN (MLD–STZ C57BL/6J mice [3]; NeraCtr, 90 min after ins): 68.25
ipITT glucose (MLD–STZ C57BL/6J mice [3]; NeraCtr, 90 min after ins, individual mice): 90 and 87 and 129 and 52
ipITT glucose (MLD–STZ C57BL/6J mice [3]; NeraSTZ, 0 min, Mean): 286.636
ipITT glucose normalized to 100, MEAN (MLD–STZ C57BL/6J mice [3]; NeraSTZ, 0 min after ins): 100
ipITT glucose (MLD–STZ C57BL/6J mice [3]; NeraSTZ, 0 min after ins, individual mice): 462 and 369 and 228 and 215 and 295 and 196 and 335 and 337 and 212 and 296 and 208
ipITT glucose (MLD–STZ C57BL/6J mice [3]; NeraSTZ, 15 min, Mean): 267.636
ipITT glucose normalized to 100, MEAN (MLD–STZ C57BL/6J mice [3]; NeraSTZ, 15 min after ins): 93.37
ipITT glucose (MLD–STZ C57BL/6J mice [3]; NeraSTZ, 15 min after ins, individual mice): 244 and 341 and 151 and 180 and 262 and 206 and 353 and 362 and 225 and 333 and 287
ipITT glucose (MLD–STZ C57BL/6J mice [3]; NeraSTZ, 30 min, Mean): 187.273
ipITT glucose normalized to 100, MEAN (MLD–STZ C57BL/6J mice [3]; NeraSTZ, 30 min after ins): 65.33
ipITT glucose (MLD–STZ C57BL/6J mice [3]; NeraSTZ, 30 min after ins, individual mice): 114 and 186 and 102 and 127 and 207 and 173 and 304 and 307 and 97 and 216 and 227
ipITT glucose (MLD–STZ C57BL/6J mice [3]; NeraSTZ, 60 min, Mean): 132.545
ipITT glucose normalized to 100, MEAN (MLD–STZ C57BL/6J mice [3]; NeraSTZ, 60 min after ins): 46.24
ipITT glucose (MLD–STZ C57BL/6J mice [3]; NeraSTZ, 60 min after ins, individual mice): 123 and 110 and 79 and 95 and 108 and 169 and 231 and 87 and 198 and 150
ipITT glucose (MLD–STZ C57BL/6J mice [3]; NeraSTZ, 90 min, Mean): 132.455
ipITT glucose normalized to 100, MEAN (MLD–STZ C57BL/6J mice [3]; NeraSTZ, 90 min after ins): 46.21
ipITT glucose (MLD–STZ C57BL/6J mice [3]; NeraSTZ, 90 min after ins, individual mice): 174 and 97 and 79 and 135 and 116 and 100 and 155 and 203 and 103 and 136 and 159
nuclear PDX1 ([4]; db/db, day 31): enhanced
PDX1 %/mouse ([4]; Mean): 57.3127%
PDX1 %/mouse ([4]; individual mice): 48.8372% and 71.3415% and 51.7595%
caspase-3 activation induced by thapsigargin (INS-1E cells): dose-dependently abolished
MST1/LATS2-induced luciferase activity (LATS-BS) (MST1–LATS2 signaling; 10 μM, last 24 h): strongly inhibited
Firefly/Renilla x1000 (MEAN) (MST1–LATS2 signaling; mean of six dishes): 10.9109
Firefly/Renilla x1000 (MEAN) (MST1–LATS2 signaling; single culture dishes): 12.1618
inhibition at 10 µM (MEK6): 9%
